Values quoted from earlier work as cited in patent US20070258969A1, “Compositions and methods for targeting metastatic tumors using multivalent ligand-linked carbohydrate polymers” (priority 2004, published 2007).

How the values were obtained:
L-1 sarcoma cells = conditions: in vivo
B16 melanoma cells = conditions: in vivo

Molecule	liver metastasis of L-1 sarcoma cells (L-1 sarcoma cells)	metastasis of B16 melanoma cells (B16 melanoma cells)
O=C[C@H](O)[C@@H](O)[C@@H](O)[C@H](O)CO [D-galactose]	inhibited liver metastasis	
CC(=O)N[C@H]1[C@H](O[C@H]2[C@@H](O)[C@@H](CO)O[C@@H](O[C@H]3[C@H](O)[C@@H](O)C(O)O[C@@H]3CO)[C@@H]2O)O[C@H](CO)[C@@H](O)[C@@H]1O[C@@H]1O[C@H](CO)[C@H](O)[C@H](O)[C@H]1O (stereo partly shown) [lacto-N-tetrose]		inhibit metastasis
CO[C@H]1O[C@H](CO)[C@@H](O[C@@H]2O[C@H](CO)[C@H](O)[C@H](O)[C@H]2O)[C@H](O)[C@H]1O [methyl-α-D-lactoside]		inhibit metastasis
arabinogalactose	inhibited liver metastasis	
